Measurements from patent US9937261B2 (LIPOMEDIX PHARMACEUTICALS LTD., priority 2014, dated 2018).

Test system: human cervical carcinoma (CaSki) tumor
Experiment: Anti-tumor effect of prodrug and radiation therapy, CaSki tumor-bearing mice (Example 2)
Settings: 5 Gy irradiation in three fractions plus i.v. drug (prodrug 30 mg/kg, free mitomycin C 3.3 mg/kg), 21 days, FIG. 1
Protocol: Tumor volume was measured for 21 days and the change in tumor volume (ratio of tumor volume at day zero to tumor volume at indicated day post injection) as a function of days post injection of the chemotherapeutic agent was measured.
Cells from a human cervical carcinoma cell line, CaSki, were injected subcutaneously (1 million cells in 200 μL 1:1 RPMI and matrigel) into the left flank of 8 week old female Nu mice. Two weeks after inoculation, mice were treated three times with 5 Gy irradiation. […] Tumor volume was measured for 21 days in all test mice.

With `CO[C@@]12[C@H](COC(N)=O)C3=C(C(=O)C(C)=C(N)C3=O)N1C[C@@H]1N[C@@H]12` [free mitomycin C, mitomycin C] the “tumor growth (change in tumor volume)” value was “little or no tumor growth”.
